Assay results from patent US11376253B2, “Agent for treating nocturnal pollakiuria” (KYORIN PHARMACEUTICAL CO., LTD., priority 2017, dated 2022).

What was measured:
Japanese OAB patients [1] = test: twelve-week randomized, double-blind, placebo-controlled, parallel-group study of nocturnal pollakiuria in OAB patients; assay type: in vivo, human; conditions: for Difference in amount of change (vibegron group − placebo group), least squares mean (95% confidence interval) / Amount of change from baseline in the frequency of urination at night, least squares mean (95% confidence interval): 12 weeks
Protocol: The efficacy of vibegron on nocturnal pollakiuria in OAB patients was evaluated in a twelve-week randomized, double-blind, placebo-controlled, parallel-group study.
Japanese OAB patients received either vibegron (50 mg/day or 100 mg/day) or a placebo for 12 weeks. Both 50 mg/day of vibegron and 100 mg/day of vibegron were orally administered in the form of a tablet once daily after breakfast. […] There was no difference among the dose groups in terms of subject background such as gender, age, and BMI.
The therapeutic effect of vibegron on nocturnal pollakiuria in OAB patients was evaluated based on an average frequency of urination at night, which was determined by using a urination diary to investigate the frequency of urination for three days prior to visits. In this context, nighttime is defined as the period of time between when one goes to bed to sleep and when one wakes up and gets out of bed. Constrained longitudinal data analysis model (cLDA) was used for statistical analysis to estimate the least squares mean and the two-sided 95% confidence interval of each group. Furthermore, the cLDA method was used to estimate the least squares mean difference at evaluation times between the 50 mg or 100 mg vibegron groups and the placebo group and the two-sided 95% confidence intervals thereof, thereby testing the least squares mean difference compared with placebo.
Numerical values in Table 2 represent the average of the frequency of urination at night at baseline (before drug administration), the least squares mean of the amount of change from baseline in the average frequency of urination at night after 12 weeks of administration, the least squares mean of difference in the amount of change between the vibegron groups and the placebo group, and p-values. In this regard, when the amount of change is less than 0, the smaller value represents a greater therapeutic effect. […] “Patients whose frequency of urination at night is not zero at baseline” are represented as a main subject population, and other “patients whose frequency of urination at night is one or more times at baseline” and “patients whose frequency of urination at night is two or more times at baseline” are represented as populations who have more prominent symptoms of nocturnal pollakiuria. FIG. 1 is a graph in which the numerical values represent the least squares mean (ΔLSmean) of the amount of change from baseline in the frequency of urination at night after 12 weeks of administration.

Japanese OAB patients [2] = test: as above; assay type: in vivo, human; conditions: for Least squares mean of the amount of change from baseline in the first voided volume at night / Least squares mean of the amount of change from baseline in the time to first awakening (HUS) / Least squares mean of the amount of change from baseline in the single voided volume at night: patients with frequency of urination at night one or more times per day at baseline; for Least squares mean of the amount of change from baseline in the first voided volume at night: placebo 24.80 mL; for Least squares mean of the amount of change from baseline in the time to first awakening (HUS): placebo 65.08 minutes; for Least squares mean of the amount of change from baseline in the single voided volume at night: placebo +19.42 mL
[3] = 50 mg and 100 mg groups, patients with nocturnal pollakiuria with nocturnal polyuria, one or more times per day at baseline
[4] = 50 mg/day oral, patients whose frequency of urination at night is two or more times at baseline
[5] = 100 mg/day oral, patients whose frequency of urination at night is not zero at baseline
[6] = 50 mg and 100 mg groups, patients with nocturnal pollakiuria without nocturnal polyuria, one or more times per day at baseline

With `O=C(Nc1ccc(C[C@@H]2CC[C@H]([C@H](O)c3ccccc3)N2)cc1)[C@@H]1CCc2nccc(=O)n21` [Vibegron, (6S)—N-[4-({(2S,5R)-5-[(R)-hydroxy(phenyl)methyl]pyrrolidin-2-yl}methyl)phenyl]-4-oxo-4,6,7,8-tetrahydropyrrolo[1,2-a]pyrimidine-6-carboxamide] the “Frequency of urination at night compared with the placebo group” value (Japanese OAB patients [1]; [3]) was “reduced in the 50 mg vibegron group and the 100 mg vibegron group compared with the placebo group but the difference was not significant”, the “Difference in amount of change (vibegron group − placebo group), least squares mean (95% confidence interval)” value (Japanese OAB patients [1]; 50 mg/day oral, patients whose frequency of urination at night is not zero at baseline) was −0.11 (−0.21, −0.02) and the “Difference in amount of change (vibegron group − placebo group), least squares mean (95% confidence interval)” value (Japanese OAB patients [1]; 50 mg/day oral, patients whose frequency of urination at night is one or more times at baseline) was −0.16 (−0.28, −0.04). The “Amount of change from baseline in the frequency of urination at night, least squares mean (95% confidence interval)” value (Japanese OAB patients [1]; [4]) was −1.00 (−1.17, −0.83), the “Difference in amount of change (vibegron group − placebo group), least squares mean (95% confidence interval)” value (Japanese OAB patients [1]; [4]) was −0.15 (−0.38, 0.08) and the “Amount of change from baseline in the frequency of urination at night, least squares mean (95% confidence interval)” value (Japanese OAB patients [1]; [5]) was −0.62 (−0.70, −0.55). For the same compound, the “Difference in amount of change (vibegron group − placebo group), least squares mean (95% confidence interval)” value (Japanese OAB patients [1]; [5]) was −0.16 (−0.25, −0.06), the “Difference in amount of change (vibegron group − placebo group), least squares mean (95% confidence interval)” value (Japanese OAB patients [1]; 100 mg/day oral, patients whose frequency of urination at night is one or more times at baseline) was −0.21 (−0.33, −0.09) and the “Amount of change from baseline in the frequency of urination at night, least squares mean (95% confidence interval)” value (Japanese OAB patients [1]; 100 mg/day oral, patients whose frequency of urination at night is two or more times at baseline) was −1.16 (−1.34. −0.99). The “Single voided volume at night compared with the placebo group” value (Japanese OAB patients [2]; [3]) was “significantly increased”, the “Frequency of urination at night compared with the placebo group” value (Japanese OAB patients [2]; [6]) was “significantly reduced” and the “Single voided volume at night compared with the placebo group” value (Japanese OAB patients [2]; [6]) was “significantly increased”. For the same compound, the “Amount of change from baseline in the frequency of urination at night, least squares mean (95% confidence interval)” value (Japanese OAB patients [2]; 50 mg/day oral, 12 weeks, patients whose frequency of urination at night is not zero at baseline) was −0.58 (−0.65, −0.51), the “Amount of change from baseline in the frequency of urination at night, least squares mean (95% confidence interval)” value (Japanese OAB patients [2]; 50 mg/day oral, 12 weeks, patients whose frequency of urination at night is one or more times at baseline) was −0.74 (−0.82, −0.65) and the “Least squares mean of the amount of change from baseline in the first voided volume at night” value (Japanese OAB patients [2]; 50 mg/day, 12 weeks) was 48.71 mL. The “Least squares mean of the amount of change from baseline in the time to first awakening (HUS)” value (Japanese OAB patients [2]; 50 mg/day, 12 weeks) was 81.79 min, the “Least squares mean of the amount of change from baseline in the single voided volume at night” value (Japanese OAB patients [2]; 50 mg/day, 12 weeks) was “+47.85 mL” and the “Amount of change from baseline in the frequency of urination at night, least squares mean (95% confidence interval)” value (Japanese OAB patients [2]; 100 mg/day oral, 12 weeks, patients whose frequency of urination at night is one or more times at baseline) was −0.78 (−0.87, −0.70). For the same compound, the “Difference in amount of change (vibegron group − placebo group), least squares mean (95% confidence interval)” value (Japanese OAB patients [2]; 100 mg/day oral, 12 weeks, patients whose frequency of urination at night is two or more times at baseline) was −0.31 (−0.55, −0.08), the “Least squares mean of the amount of change from baseline in the first voided volume at night” value (Japanese OAB patients [2]; 100 mg/day, 12 weeks) was 71.42 mL and the “Least squares mean of the amount of change from baseline in the time to first awakening (HUS)” value (Japanese OAB patients [2]; 100 mg/day, 12 weeks) was 90.95 min. The “Least squares mean of the amount of change from baseline in the single voided volume at night” value (Japanese OAB patients [2]; 100 mg/day, 12 weeks) was “+58.14 mL”.
